In US20240116985A1, “STAPLED PEPTIDES AND METHODS THEREOF” (priority 2020, published 2024):
Where two headings read alike, the source gives them in different places.

Key:
[1] = target: T1, beta-catenin/TCF4 engagement (Homo sapiens, UniProt P35222); test: Nano-BRET target engagement assay (B-cat-Halo & TCF4-Luc in HEK293 cells); format: cell-based; details: read-out: NanoBRET Abs IC50
T1 construct: expressed in transfected cells; host or cells: HEK293
T1 sequence (P35222 1-781): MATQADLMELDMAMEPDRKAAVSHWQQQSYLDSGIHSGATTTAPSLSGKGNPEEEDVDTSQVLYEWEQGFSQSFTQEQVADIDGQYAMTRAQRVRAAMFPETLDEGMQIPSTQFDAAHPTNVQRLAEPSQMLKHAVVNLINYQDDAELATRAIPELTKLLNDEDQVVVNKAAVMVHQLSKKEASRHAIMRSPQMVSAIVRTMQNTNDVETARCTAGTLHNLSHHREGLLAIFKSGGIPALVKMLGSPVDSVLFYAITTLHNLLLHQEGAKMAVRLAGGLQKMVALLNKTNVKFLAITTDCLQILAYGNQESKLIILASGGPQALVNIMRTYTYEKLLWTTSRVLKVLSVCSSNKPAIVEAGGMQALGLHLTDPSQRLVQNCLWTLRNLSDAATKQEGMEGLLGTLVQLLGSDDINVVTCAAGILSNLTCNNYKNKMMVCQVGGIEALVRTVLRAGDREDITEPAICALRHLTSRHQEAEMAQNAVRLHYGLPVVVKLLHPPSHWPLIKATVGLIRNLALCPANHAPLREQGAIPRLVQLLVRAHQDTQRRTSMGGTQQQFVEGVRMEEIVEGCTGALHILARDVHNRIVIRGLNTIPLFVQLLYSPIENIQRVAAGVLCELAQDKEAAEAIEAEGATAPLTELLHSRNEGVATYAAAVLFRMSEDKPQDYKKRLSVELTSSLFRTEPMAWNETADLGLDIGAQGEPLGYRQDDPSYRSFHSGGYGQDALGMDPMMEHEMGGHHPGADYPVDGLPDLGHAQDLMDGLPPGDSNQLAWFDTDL

[2] = target: T2, full-length beta-Catenin (Uniprot ID P35222) (Homo sapiens, UniProt P35222); test: Fluorescence polarization IC50 (beta-catenin / 5FAM-TCF4 10-53 competition); format: binding; details: fluorescence polarization; read-out: beta-Catenin FP IC50
T2 construct: 10 nM full-length beta-Catenin (Uniprot ID P35222)
T2 sequence (P35222 1-781): T1 sequence (P35222 1-781)

| SMILES | IC50 ([1]; absolute IC50) [µM] | IC50 [2] [µM] | IC50 [1] [µM] |
| --- | --- | --- | --- |
| CC(=O)N1CCC[C@]12CC=CCCCC1(CCCC=CCCCOC(=O)N3CC[C@@](C(=O)N[C@@H](Cc4ccsc4)C(=O)N[C@@H](Cc4csc5ccccc45)C(=O)N[C@@H](CCC(N)=O)C(N)=O)(C3)NC(=O)[C@H](CC(C)C)NC(=O)[C@H](Cc3ccccc3)NC(=O)[C@H](C)NC(=O)[C@H](C)NC(=O)[C@H](CC(=O)O)NC(=O)[C@H](CC(=O)O)NC1=O)NC(=O)[C@H](CCCCNC(=O)COCCOCCNC(=O)CC[C@@H](C)[C@H]1CC[C@H]3[C@@H]4CC[C@@H]5C[C@H](O)CC[C@]5(C)[C@H]4CC[C@]13C)NC(=O)[C@H](CC(=O)O)NC2=O (stereo partly drawn) [I-1470, Ac-PL3-Asp-[lithocholate-PEG2]-Lys-B5-Asp-Asp-Ala-Ala-Phe-Leu-PyrS2-3Thi-BztA-Gln-NH2] | > 20 | 0.057 |  |
| CC(=O)N1CCC[C@]12CC=CCCCC1(CCCC=CCCCOC(=O)N3CC[C@@](C(=O)N[C@@H](Cc4ccsc4)C(=O)N[C@@H](Cc4csc5ccccc45)C(=O)N[C@@H](CCC(N)=O)C(N)=O)(C3)NC(=O)[C@H](CC(C)C)NC(=O)[C@H](Cc3ccccc3)NC(=O)[C@H](C)NC(=O)[C@H](C)NC(=O)[C@H](CC(=O)O)NC(=O)[C@H](CC(=O)O)NC1=O)NC(=O)[C@H](Cc1ccc(O)cc1)NC(=O)[C@H](CC(=O)O)NC2=O (stereo partly drawn) [I-1511, Ac-PL3-Asp-Tyr-B5-Asp-Asp-Ala-Ala-Phe-Leu-PyrS2-3Thi-BztA-Gln-NH2] | > 20 | 0.005 |  |
| CC(=O)N1CCC[C@]12CC=CCCCC1(CCCC=CCCCOC(=O)N3CC[C@@](C(=O)N[C@@H](Cc4ccsc4)C(=O)N[C@@H](Cc4csc5ccccc45)C(=O)N[C@@H](CCC(N)=O)C(N)=O)(C3)NC(=O)[C@H](CC(C)C)NC(=O)[C@H](Cc3ccccc3)NC(=O)[C@H](C)NC(=O)[C@H](C)NC(=O)[C@H](CCC(N)=O)NC(=O)[C@H](CC(=O)O)NC1=O)NC(=O)[C@H](CC(C)(C)C)NC(=O)[C@H](CC(=O)O)NC2=O (stereo partly drawn) [I-1440, Ac-PL3-Asp-Npg-B5-Asp-Gln-Ala-Ala-Phe-Leu-PyrS2-3Thi-BztA-Gln-NH2] | 20.7 | 0.026 |  |
| CC(=O)N1CCC[C@]12CC=CCCCC1(CCCC=CCCCOC(=O)N3CC[C@@](C(=O)N[C@@H](Cc4ccccc4C(F)(F)F)C(=O)N[C@@H](Cc4csc5ccccc45)C(=O)N[C@@H](CC(=O)N4CCOCC4)C(N)=O)(C3)NC(=O)[C@H](CC(C)C)NC(=O)[C@H](Cc3ccccc3)NC(=O)[C@H](C)NC(=O)[C@H](C)NC(=O)[C@H](Cc3cccc(C(=O)O)c3)NC(=O)[C@H](CC(=O)O)NC1=O)NC(=O)[C@H](CC(C)(C)C)NC(=O)[C@H](CC(=O)O)NC2=O (stereo partly drawn) [I-1614, Ac-PL3-Asp-Npg-B5-Asp-3COOHF-Ala-Ala-Phe-Leu-PyrS2-2F3MeF-BztA-MorphAsn-NH2] | 6.4 | 0.015 |  |
| CCCC[C@@H]1NC(=O)[C@H](CN(CC(=O)O)CC(F)(F)F)NC(=O)[C@H](CC(=O)O)NC(=O)C2(CCCC=CCCCOC(=O)N3CC[C@@](C(=O)N[C@@H](Cc4ccccc4Cl)C(=O)N[C@@H](Cc4csc5ccccc45)C(=O)N[C@@H](CCC(N)=O)C(N)=O)(C3)NC(=O)[C@H]([C@@H](C)O)NC(=O)[C@H](Cc3ccccc3)NC(=O)[C@H](C)NC1=O)CCCC=CC[C@]1(CCCN1C(C)=O)C(=O)N[C@@H](CC(=O)O)C(=O)N[C@@H](CC(C)(C)C)C(=O)N2 (stereo partly drawn) [I-1692, Ac-PL3-Asp-Npg-B5-Asp-TfeGA-nLeu-Ala-Phe-Thr-PyrS2-2C1F-BztA-Gln-NH2] | 10.4 | 0.017 |  |
| CC(=O)N1CCC[C@]12CC=CCCCC1(CCCC=CCCCOC(=O)N3CC[C@@](C(=O)N[C@@H](Cc4ccsc4)C(=O)N[C@@H](Cc4ccc5ccccc5c4)C(=O)N[C@@H](CCC(N)=O)C(N)=O)(C3)NC(=O)[C@H](CC(C)C)NC(=O)[C@H](Cc3ccccc3)NC(=O)[C@H](C)NC(=O)[C@H](C)NC(=O)[C@H](CC(=O)O)NC(=O)[C@H](CC(=O)O)NC1=O)NC(=O)[C@H](CC(C)(C)C)NC(=O)[C@H](CC(=O)O)NC2=O (stereo partly drawn) [I-1235, Ac-PL3-Asp-Npg-B5-Asp-Asp-Ala-Ala-Phe-Leu-PyrS2-3Thi-2NapA-Gln-NH2] | 24.8 | 0.027 |  |

More lines, now with the values ahead:

| IC50 ([1]; absolute IC50) [µM] | IC50 [2] [µM] | IC50 [1] [µM] | SMILES |
| --- | --- | --- | --- |
|  | 0.011 | 4.7 | CC(=O)N1CCC[C@]12CC=CCCCC1(CCCC=CCCCOC(=O)N3CC[C@@](C(=O)N[C@@H](Cc4ccccc4Cl)C(=O)N[C@@H](Cc4csc5ccccc45)C(=O)N[C@@H](C)C(N)=O)(C3)NC(=O)[C@H](CC(N)=O)NC(=O)[C@H](Cc3ccccc3)NC(=O)[C@H](C)NC(=O)[C@H](C)NC(=O)[C@H](Cc3cccc(C(=O)O)c3)NC(=O)[C@H](CC(=O)O)NC1=O)NC(=O)[C@H](CC(C)(C)C)NC(=O)[C@H](CC(=O)O)NC2=O (stereo partly drawn) [I-2031, Ac-PL3-Asp-Npg-B5-Asp-3COOHF-Ala-Ala-Phe-Asn-PyrS2-2C1F-BztA-Ala-NH2] |
| 2.9 | 0.011 |  | CC(=O)N1CCC[C@]12CC=CCCCC1(CCCC=CCCCOC(=O)N3CC[C@@](C(=O)N[C@@H](Cc4ccccc4C(F)(F)F)C(=O)N[C@@H](Cc4csc5ccccc45)C(=O)N[C@@H](CCC(=O)N(C)C)C(N)=O)(C3)NC(=O)[C@H](CCC(=O)N3CCOCC3)NC(=O)[C@H](Cc3ccccc3)NC(=O)[C@H](C)NC(=O)[C@H](C)NC(=O)[C@H](Cc3cccc(C(=O)O)c3)NC(=O)[C@H](CC(=O)O)NC1=O)NC(=O)[C@H](CC(C)(C)C)NC(=O)[C@H](CC(=O)O)NC2=O (stereo partly drawn) [I-2537, Ac-PL3-Asp-Npg-B5-Asp-3COOHF-Ala-Ala-Phe-MorphGln-PyrS2-2F3MeF-BztA-Me2Gln-NH2] |
|  | 0.052 | 6.4 | CC(=O)N1CCC[C@]12CC=CCCCC1(CCCC=CCCCOC(=O)N3CC[C@@](C(=O)N[C@@H](Cc4ccsc4)C(=O)N[C@@H](Cc4csc5ccccc45)C(=O)N[C@@H](Cc4ccccc4)C(N)=O)(C3)NC(=O)[C@H](CC(C)C)NC(=O)[C@H](Cc3ccccc3)NC(=O)[C@H](C)NC(=O)C(C)(C)NC(=O)[C@H](Cc3cccc(C(=O)O)c3)NC(=O)[C@H](CC(=O)O)NC1=O)NC(=O)[C@H](CC(C)(C)C)NC(=O)[C@H](CC(=O)O)NC2=O (stereo partly drawn) [I-1914, Ac-PL3-Asp-Npg-B5-Asp-3COOHF-Aib-Ala-Phe-Leu-PyrS2-3Thi-BztA-Phe-NH2] |
|  | 0.18 | > 20 | CC(=O)N1CCC[C@]12CC=CCCCC1(CCCC=CCCCOC(=O)N3CC[C@@](C(=O)N[C@@H](Cc4ccccc4)C(=O)N[C@@H](Cc4csc5ccccc45)C(=O)N[C@@H](CCO)C(N)=O)(C3)NC(=O)[C@H](CC(N)=O)NC(=O)[C@H](Cc3ccccc3)NC(=O)[C@H](C)NC(=O)[C@H](CCC(N)=O)NC(=O)[C@H](CCC(N)=O)NC(=O)[C@H](CC(=O)O)NC1=O)NC(=O)[C@H](CC1CCCCC1)NC(=O)[C@H](CC(N)=O)NC2=O (stereo partly drawn) [I-2067, Ac-PL3-Asn-Cha-B5-Asp-Gln-Gln-Ala-Phe-Asn-PyrS2-Phe-BztA-Hse-NH2] |
| > 20 | 0.063 |  | CC(=O)N1CCC[C@]12CC=CCCCC1(CCCC=CCCCOC(=O)N3CC[C@@](C(=O)N[C@@H](Cc4ccsc4)C(=O)N[C@@H](Cc4csc5ccccc45)C(=O)N[C@@H](CCC(N)=O)C(N)=O)(C3)NC(=O)[C@H](CC(N)=O)NC(=O)[C@H](Cc3ccccc3)NC(=O)[C@H](C)NC(=O)C(C)(C)NC(=O)[C@H]([C@@H](C)O)NC(=O)[C@H](CC(N)=O)NC1=O)NC(=O)[C@H](CC(C)(C)C)NC(=O)[C@H](CC(=O)O)NC2=O (stereo partly drawn) [I-2338, Ac-PL3-Asp-Npg-B5-Asn-Thr-Aib-Ala-Phe-Asn-PyrS2-3Thi-BztA-Gln-NH2] |
